Broadly, the Ki is a measure of affinity in units of concentration, obtained from inhibition or displacement.

Data on five molecules can be found in patent US20020183290A1, “Adrenergic receptor antagonists selective for both alpha1A-and alpha1D-subtypes and uses therefor” (Recordati S.A., Chemical and Pharmaceutical Company, priority 2001, published 2002).

The structures appear in SMILES notation. Like-named read-outs stand apart in the source and are kept apart here.

For test [1], the target named is T1, cloned α1a-adrenoceptor subtype (Homo sapiens, UniProt P35348).
T1 construct: expressed in transfected cells
T1 sequence (P35348 1-466): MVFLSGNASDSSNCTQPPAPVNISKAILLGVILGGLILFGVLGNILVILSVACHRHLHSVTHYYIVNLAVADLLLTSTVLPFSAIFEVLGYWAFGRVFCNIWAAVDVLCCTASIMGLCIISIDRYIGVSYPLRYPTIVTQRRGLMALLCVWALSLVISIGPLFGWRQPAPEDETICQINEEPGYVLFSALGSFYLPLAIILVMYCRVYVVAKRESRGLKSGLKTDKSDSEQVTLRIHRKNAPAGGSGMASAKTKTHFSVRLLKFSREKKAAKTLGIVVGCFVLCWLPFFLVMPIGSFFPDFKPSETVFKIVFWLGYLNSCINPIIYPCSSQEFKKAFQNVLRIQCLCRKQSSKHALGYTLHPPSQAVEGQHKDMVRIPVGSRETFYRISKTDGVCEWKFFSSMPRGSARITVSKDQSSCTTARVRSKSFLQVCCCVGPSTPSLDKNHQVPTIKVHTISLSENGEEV
Briefly: Radioligand binding assay ([3H]prazosin), cloned α1a-adrenoceptor subtype. The note with it: read-out: Binding Affinity (Ki nM) α1a. The protocol:
(§1) Springer-Verlag, pp. 10-12). […] The results from these assays are used to calculate a measure of receptor selectivity, expressed as the ratio of affinities (Ki) for a given pair of receptors.
(§2) Determination of affinity for cloned subtypes of α1-adrenoceptor subtypes was performed in membranes from cells transfected by electroporation with DNA expressing the genes encoding each α1-adrenoceptor subtype.
(§3) Non-specific binding was determined in the presence of 10 μM phentolamine. Incubation was stopped by addition of ice-cold Tris buffer and rapid filtration through 0.2% polyethyleneimine-pretreated Schleicher & Schuell GF52 filters. […] Data were expressed as mean Ki.

The target in test [2] is T2, cloned α1b-adrenoceptor subtype (Homo sapiens, UniProt P35368).
T2 construct: expressed in transfected cells
T2 sequence (P35368 1-520): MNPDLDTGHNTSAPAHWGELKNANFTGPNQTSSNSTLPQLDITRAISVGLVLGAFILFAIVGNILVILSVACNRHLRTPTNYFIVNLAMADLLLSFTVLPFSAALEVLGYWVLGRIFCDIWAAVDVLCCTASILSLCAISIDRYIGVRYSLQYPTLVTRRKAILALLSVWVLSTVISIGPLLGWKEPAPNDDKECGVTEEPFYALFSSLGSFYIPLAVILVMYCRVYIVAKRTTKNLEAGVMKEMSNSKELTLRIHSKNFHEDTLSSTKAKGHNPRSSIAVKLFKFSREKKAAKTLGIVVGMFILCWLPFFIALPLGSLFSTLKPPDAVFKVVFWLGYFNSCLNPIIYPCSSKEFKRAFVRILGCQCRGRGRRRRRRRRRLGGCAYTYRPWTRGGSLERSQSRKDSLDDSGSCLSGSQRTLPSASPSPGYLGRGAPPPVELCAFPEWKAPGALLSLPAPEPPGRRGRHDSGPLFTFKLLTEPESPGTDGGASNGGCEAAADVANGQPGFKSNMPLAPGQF
Briefly: Radioligand binding assay ([3H]prazosin), cloned α1b-adrenoceptor subtype. The note with it: read-out: Binding Affinity (Ki nM) α1b. The protocol:
as §1, §2, §3

The target of test [3] is T3, cloned α1d-adrenoceptor subtype (Homo sapiens, UniProt P25100).
T3 construct: expressed in transfected cells
T3 sequence (P25100 1-572): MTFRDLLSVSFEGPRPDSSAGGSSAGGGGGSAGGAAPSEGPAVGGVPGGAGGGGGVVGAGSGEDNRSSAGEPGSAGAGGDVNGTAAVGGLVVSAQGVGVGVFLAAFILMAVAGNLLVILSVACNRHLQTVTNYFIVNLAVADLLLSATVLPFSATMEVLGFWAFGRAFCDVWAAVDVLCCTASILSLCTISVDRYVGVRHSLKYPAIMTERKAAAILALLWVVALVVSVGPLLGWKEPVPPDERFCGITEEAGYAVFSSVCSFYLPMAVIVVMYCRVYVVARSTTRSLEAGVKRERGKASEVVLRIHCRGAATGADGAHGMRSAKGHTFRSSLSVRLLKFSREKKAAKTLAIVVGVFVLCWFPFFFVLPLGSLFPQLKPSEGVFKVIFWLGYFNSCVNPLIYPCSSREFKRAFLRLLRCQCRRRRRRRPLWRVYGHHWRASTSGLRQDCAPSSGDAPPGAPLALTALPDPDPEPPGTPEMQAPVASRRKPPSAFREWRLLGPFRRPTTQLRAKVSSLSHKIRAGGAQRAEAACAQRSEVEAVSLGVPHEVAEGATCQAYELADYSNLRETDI
Briefly: Radioligand binding assay ([3H]prazosin), cloned α1d-adrenoceptor subtype. To be noted: read-out: Binding Affinity (Ki nM) α1d. The protocol: as §1, §2, §3

Test [4] concerns conscious rats with partial urethral obstruction. Briefly: Cystometry in conscious rats obstructed by partial urethra ligature (unstable-bladder contractions). The note with it: for inhibition in vivo at 1 mg/kg / inhibition in vivo at 3 mg/kg: 2 min; for Amplitude of non-effective micturition contractions, After Treat. / Frequency (number) of non-effective micturition contractions, After Treat.: after treatment; for Activity as inhibitors of unstable-bladder contractions (in words): obstructed conscious rats, summary of Tables 1 and 2. The class given is in vivo, rat. An excerpt:
A useful animal model system for measuring such pharmacological activity is, without limitation, cystometry in conscious rats with partial bladder-neck obstruction. […] This model is reported in the literature as related to LUTS occurring in patients having obstructive urethral syndromes (Michel, 2000, Drugs of Today. 386 (Supp. B2): 3-6)
In order to obtain a partial obstruction of the urethra, the method previously reported by Malgren (Nalgren et al., 1987, J. Urol. 137:1291-1294; 1988, Neurourol. Urodyn. 6:371), was followed with minor modifications (Guarneri et al., 1991, Pharmacol. Res. 24:263).
Female rats of the Sprague-Dawley strain [Crl:CD(SD)BR, from Charles River Italia, Calco, Como, Italy] weighing 225-275 g were used. The animals were maintained in constant temperature and humidity conditions, on a forced 12-hour light-dark cycle and with food and water ad libitum for at least one week before the experiment.
After being anaesthetized with 3 ml/kg i.p. equitensin (pentobarbital 1.215 g, chloral hydrate 5.312 g, magnesium sulphate 2.657 g, ethanol 12.5 ml, propylene glycol 49.5 ml, distilled water to 125 ml of final volume), the rats were placed in a supine position and the bladder and urethra were exposed via an incision in the shaven abdomens and gently pulling away the muscle portion. The urethra was cannulated with a polyethylene tube with an outside diameter of 1.22 mm, and the urinary bladder was then emptied and, via the cannula introduced through the urethra, filled with physiological saline. A silk (Ethicon 3/0) ligature was placed around the urethra with the cannula inside and the intraurethral cannula was then removed. The abdominal incision was sutured and, immediately after the operative procedure, antibiotic medication (penicillin G 200 000 I.U./kg i.p. and streptomycin 260 mg/kg i.p.) was performed.
Three weeks after the procedure for partially obstructing the urethra, the animals were prepared for cystometry by surgical insertion into the bladder of a catheter, through which the bladder was gradually filled.
The rats, anaesthetised with equitensin 3 ml/kg i.p., were placed in a supine position and, via an incision of about 10 mm in the abdominal wall, the urinary bladder was exposed and gently freed from surrounding tissues.
The urinary bladder was emptied manually and cannulated, via a small incision at the bladder top, with a polyethylene cannula (type PE-50, 0.58 mm I.D. ×0.96 mm O.D.), which was permanently secured to the bladder with silk thread.
The cannula was exposed through a subcutaneous tunnel in the retroscapular area, where it was fastened with a plastic adapter, in order to avoid the risk of removal by the animal. After washing the urinary bladder with physiological saline, the catheter was sealed using a small flame and the abdominal incision was sutured.
To allow evaluation of the effect of a test compound after intravenous administration, the jugular vein was cannulated with a polyethylene cannula (type PE-50, 0.58 mm I.D.×0.96 mm O.D.) filled with heparinised physiological saline. As for the bladder catheter, this cannula, too, was exteriorised, secured and sealed in the retroscapular area.
Two days after the operation, the rats, fasted overnight, were placed in Bollman's cages or in Bollman's cages modified so as to have an opening in the bottom to allow collection of urinated fluid.
After an adaptation period of 20 minutes, the free end of the bladder cannula was connected to a pressure transducer and a special apparatus which allowed infusion into the urinary bladder of physiological saline at 37° C. at a constant rate of 10 ml/hour. Intravesical pressure changes caused by bladder filling were recorded by the pressure transducer which was connected to a recording polygraph.
From the cystometrograms, the frequency and mean amplitude of spontaneous bladder contractions not inducing micturition, termed “unstable-bladder contractions” (UBC), within 2 minutes prior to micturition were evaluated. […]

The subject of the next test is LUTS. To be noted: LUTS secondary to BPH; relaxing effects on prostate smooth muscle were present; cited from earlier work.
Setting [5] is: cloned receptor, cell membranes, 0.2 nM [3H]prazosin, mean Ki.
Where [6] appears, read: obstructed rat, 1 mg/kg, 2 minutes before micturition, read-out: % inhibition of amplitude of non-effective micturition contractions.
Where [7] appears, read: obstructed rat, 1 mg/kg, 2 minutes before micturition, read-out: % inhibition of frequency of non-effective micturition contractions.
The mark [8] stands for this setting: Rattus norvegicus, read-out: % inhibition of amplitude of non-effective micturition contractions.
Setting [9] is: Rattus norvegicus, read-out: % inhibition of frequency of non-effective micturition contractions.

Take `COc1ccc(Cl)cc1N1CCN(CCCNC(=O)c2c(-c3ccccc3)noc2C)CC1` [Compound B, N-{3-[4-(5-Chloro-2-methoxyphenyl)-1-piperazinyl]propyl}-5-methyl-3-phenylisoxazole-4-carboxamide]: the values for the Ki in test [1], in test [2] (setting [5]) and in test [3] were 0.8 nM, 23.6 nM and 2.7 nM, respectively. Further, the figures for the inhibition in vivo at 1 mg/kg in test [4] (setting [6]) and in test [4] (setting [7]) were 44% and 49%, respectively. Further, the “Amplitude of non-effective micturition contractions, After Treat.” value in test [4] (1.0 mg/kg) is reported as 4.2 ± 1.0 mmHg. The “Frequency (number) of non-effective micturition contractions, After Treat.” value in test [4] (1.0 mg/kg) amounted to 3.0 ± 0.7. Further, the “Activity as inhibitors of unstable-bladder contractions (in words)” value (from here on “Activity as inhibitors”) in test [4] is listed as “more potent”.

As for `Cc1onc(-c2ccccc2)c1C(=O)NCCCN1CCN(c2cc(F)ccc2OCC(F)(F)F)CC1` [Compound C, N-{3-[4-[5-fluoro-2-(2,2,2-trifluoroethoxy)phenyl]-1-piperazinyl]propyl}-3-phenyl-5-methylisoxazole-4-carboxamide], the Ki in test [1] amounted to 0.05 nM; in test [3] it was 0.33 nM.

In the case of `Cc1onc(-c2ccccc2Cl)c1C(=O)NCCCN1CCN(c2ccccc2OCC(F)(F)F)CC1` [Compound D, 3-(2-chlorophenyl)-5-methyl-N-{3-[4-[2-(2,2,2-trifluoroethoxy)phenyl]-1-piperazinyl]propy}isoxazole-4-carboxamide], the Ki in test [1] turned out to be 0.07 nM; in test [2], 14.1 nM; in test [3], 0.49 nM. Besides, the inhibition in vivo at 1 mg/kg turned out to be 73% in test [4] (setting [6]) and 68% in test [4] (setting [7]). In test [4] (1.0 mg/kg), the “Amplitude of non-effective micturition contractions, After Treat.” value is reported as 2.1 ± 0.7 mmHg. In addition, the “Frequency (number) of non-effective micturition contractions, After Treat.” value in test [4] (1.0 mg/kg) was found to be 1.7 ± 0.8. In addition, in test [4], the “Activity as inhibitors” value is recorded as “more potent”.

On to `COc1ccccc1N1CCN(CCCNC(=O)c2cccc3c(=O)c(C)c(-c4ccccc4)oc23)CC1` [Rec 15/2739], for which, in test [4] (setting [8]), the inhibition in vivo at 1 mg/kg turned out to be 29%. In addition, the inhibition in vivo at 1 mg/kg in test [4] (setting [9]) worked out at 28%. Moreover, in test [4] (1.0 mg/kg), the “Amplitude of non-effective micturition contractions, After Treat.” value is recorded as 7.3 ± 1.3 mmHg and the “Frequency (number) of non-effective micturition contractions, After Treat.” value came out at 4.8 ± 0.2. Also, the “Activity as inhibitors” value in test [4] is reported as “poorly active”. The “Relief of LUTS in clinical trial” value with LUTS is “did not result in relief of LUTS”.

As for `Cc1onc(-c2ccccc2)c1C(=O)NCCCN1CCN(c2ccc(F)cc2OCC(F)(F)F)CC1` [Rec 27/0110], the values for the Ki in test [1], in test [2] (setting [5]) and in test [3] were 0.35 nM, 69 nM and 18.9 nM, respectively. For the same molecule, the inhibition in vivo at 1 mg/kg in test [4] (setting [8]) was 21%; in test [4] (setting [9]), 27%. Besides, the values for the inhibition in vivo at 3 mg/kg in test [4] (setting [8]) and in test [4] (setting [9]) were 53% and 49%, respectively. Moreover, the “Amplitude of non-effective micturition contractions, After Treat.” value in test [4] (1.0 mg/kg) is recorded as 6.0 ± 1.4 mmHg; in test [4] (3.0 mg/kg), 2.3 ± 0.8 mmHg. In addition, the “Frequency (number) of non-effective micturition contractions, After Treat.” value in test [4] (1.0 mg/kg) was found to be 4.4 ± 0.8; in test [4] (3.0 mg/kg) it was 2.2 ± 0.7. The “Activity as inhibitors” value in test [4] is on record as “poorly active”.
